Key:
human CPR (hCPR) = assay: NADPH-dependent reduction of cytochrome C by CPR in microsomes after treatment with substrates; assay type: biochemical; conditions: microsomes quantified against CPR and Cc; Cc oxidase activity inhibited by potassium cyanide
Source text: The following example illustrates an application of human P450 compositions according to the present invention. Procedures followed previously described methods, e.g., U.S. Pat. No. 6,020,288; M. Markwell, et al., Methods of Enzymology 72:296-303 (1981); C. A. Mihaliak, et al., Methods in plant biochemistry 19:261-279 (1993); R. Donaldson, et al., Arch. Biochem. Biophys. 152:199-215 (1972); and M. Persans, et al., Plant Physiol. 109:1483-1490 (1995)).
Methods. CPR substrates have been assayed on various tissues (e.g., U.S. Pat. No. 6,020,288); therefore, response to human CPR (hCPR) was examined under controlled conditions on live index organisms. The direct effects of substrates on hCPR were measured by preparation of microsomes for quantification against CPR and Cc. Controls included equal concentrations of each individual treatment or substrate in surfactant and water. Untreated controls were maintained under identical conditions of culture. Oxidase activity of Cc was inhibited by potassium cyanide. The reaction was initiated by addition of Cc wherein NADPH-dependent reduction of Cc was monitored for increases in absorbance.

[1] = basis for selecting preferred oxidants; cited from earlier work

## Cc1cc2nc3c(=O)[nH]c(=O)nc-3n(C[C@H](O)[C@H](O)[C@H](O)COP(=O)(O)O)c2cc1C [FMN, flavin mononucleotide]
Human CPR (hCPR)
  induction relative to components tested: over 4.5 times
[1]
  one-electron reduction potential (E0): −313 mV

## nitrobenzoate
[1]
  one-electron reduction potential (E0): −396 mV

## O=C(O)CO [glycolate]
[1]
  one-electron reduction potential (E0): −290 mV

— patent publication US11311567B2, “Cytochrome P450 enzyme complexes and methods of treatment using the same” (Innovation Hammer LLC, priority 2004, dated 2022)
